Assay results published in US20260356819A1, “OXOISOINDOLINYL-SUBSTITUTED […] DERIVATIVE AND USE THEREOF” (GLUETACS THERAPEUTICS (SHANGHAI) CO., LTD., priority 2023, published 2026).

Assays:
Type in all cases: cell-based
Settings in all cases: compounds at 50 nM and 500 nM
CK1α = biological target: T1, CK1α (Homo sapiens, UniProt P48729+Q96SW2); test: Western blot degradation of CK1α in hPBMCs (24 h)
T1 construct: The supernatant was aspirated as the extracted total cell protein; endogenous in cells; host or cells: human peripheral blood mononuclear cells (hPBMCs)
T1 sequence (P48729 whole entry): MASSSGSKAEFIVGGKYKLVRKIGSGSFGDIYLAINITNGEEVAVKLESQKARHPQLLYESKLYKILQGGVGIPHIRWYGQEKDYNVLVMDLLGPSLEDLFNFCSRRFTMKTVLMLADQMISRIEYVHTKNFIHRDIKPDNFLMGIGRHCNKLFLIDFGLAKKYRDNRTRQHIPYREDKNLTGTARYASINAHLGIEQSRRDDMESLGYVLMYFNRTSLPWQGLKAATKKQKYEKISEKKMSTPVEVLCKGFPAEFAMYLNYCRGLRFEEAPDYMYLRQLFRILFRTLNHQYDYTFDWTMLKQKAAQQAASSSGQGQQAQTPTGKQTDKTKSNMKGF
T1 sequence (Q96SW2 whole entry): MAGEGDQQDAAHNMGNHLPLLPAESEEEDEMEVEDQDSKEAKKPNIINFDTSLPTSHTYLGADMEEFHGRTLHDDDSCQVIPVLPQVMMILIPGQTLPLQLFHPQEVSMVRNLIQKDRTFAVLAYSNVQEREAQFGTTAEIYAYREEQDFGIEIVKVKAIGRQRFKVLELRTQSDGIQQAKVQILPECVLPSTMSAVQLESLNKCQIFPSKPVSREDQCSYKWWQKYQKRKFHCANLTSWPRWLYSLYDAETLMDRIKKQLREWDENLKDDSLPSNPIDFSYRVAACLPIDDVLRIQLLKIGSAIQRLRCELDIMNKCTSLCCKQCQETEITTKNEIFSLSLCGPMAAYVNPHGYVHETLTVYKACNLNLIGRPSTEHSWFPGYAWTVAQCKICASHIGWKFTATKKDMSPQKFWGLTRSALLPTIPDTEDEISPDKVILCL
T1 sequence (Q16531 whole entry partner): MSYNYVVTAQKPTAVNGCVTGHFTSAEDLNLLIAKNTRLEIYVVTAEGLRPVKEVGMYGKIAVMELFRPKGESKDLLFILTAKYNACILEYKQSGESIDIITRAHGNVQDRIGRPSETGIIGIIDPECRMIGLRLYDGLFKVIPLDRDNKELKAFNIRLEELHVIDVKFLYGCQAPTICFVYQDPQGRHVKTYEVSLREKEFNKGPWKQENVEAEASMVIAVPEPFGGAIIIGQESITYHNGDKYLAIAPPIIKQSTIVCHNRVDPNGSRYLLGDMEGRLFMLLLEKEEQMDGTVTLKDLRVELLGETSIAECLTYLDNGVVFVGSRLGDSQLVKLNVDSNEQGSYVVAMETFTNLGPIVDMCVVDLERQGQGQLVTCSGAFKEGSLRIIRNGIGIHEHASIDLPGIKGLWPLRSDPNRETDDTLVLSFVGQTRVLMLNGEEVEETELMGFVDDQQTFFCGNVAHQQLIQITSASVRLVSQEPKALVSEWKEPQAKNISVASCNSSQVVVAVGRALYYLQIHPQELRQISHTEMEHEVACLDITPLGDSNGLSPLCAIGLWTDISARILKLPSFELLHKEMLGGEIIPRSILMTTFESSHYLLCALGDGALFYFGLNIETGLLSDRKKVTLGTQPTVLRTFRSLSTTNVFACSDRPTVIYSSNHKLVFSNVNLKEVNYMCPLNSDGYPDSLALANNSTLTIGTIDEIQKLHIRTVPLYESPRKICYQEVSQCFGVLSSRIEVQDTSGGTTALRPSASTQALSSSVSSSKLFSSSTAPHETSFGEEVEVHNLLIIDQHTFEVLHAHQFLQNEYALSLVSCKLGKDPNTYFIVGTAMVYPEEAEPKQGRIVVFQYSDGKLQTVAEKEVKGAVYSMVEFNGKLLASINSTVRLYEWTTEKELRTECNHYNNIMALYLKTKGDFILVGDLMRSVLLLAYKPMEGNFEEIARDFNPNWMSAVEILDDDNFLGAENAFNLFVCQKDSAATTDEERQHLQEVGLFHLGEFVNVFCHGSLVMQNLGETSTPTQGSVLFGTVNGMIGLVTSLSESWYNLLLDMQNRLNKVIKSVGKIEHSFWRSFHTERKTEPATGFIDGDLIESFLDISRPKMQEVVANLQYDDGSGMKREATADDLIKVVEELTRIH
Description: (§1) Conventional Western blot assay was performed to evaluate the effects of the compounds of the present disclosure on the expression of target proteins in cells. • (1) Cell Seeding and Protein Harvesting: Human peripheral blood mononuclear cells (hPBMCs) at a density of 1×10^6 cells/mL were thawed according to the PBMC Recovery Protocol (Milecell Biotechnologies Inc, Shanghai). The cells were then treated with the compounds of the present disclosure (including the compounds listed in Table 1, and the Examples 1-498 compounds) at concentrations of 50 nM and 500 nM. Controls included a negative control (DMSO) and a positive control (the commercial immunomodulatory drug lenalidomide), both processed following the identical experimental protocol as the compounds of the present disclosure. After 24 hours of compounds treatment, cells were harvested and lysed in RIPA protein lysate containing protease inhibitors on ice for 30 min, followed by centrifugation. The supernatant was aspirated as the extracted total cell protein. The protein concentration of the supernatant was determined using the conventional BCA (Bicinchoninic Acid) assay. • (2) To the collected supernatant, 5×SDS sample loading buffer was added, followed by denaturation at 95 °C for 5 minutes. The denatured samples were then separated by SDS-PAGE electrophoresis on a polyacrylamide gel. Proteins were transferred to a nitrocellulose membrane (0.45 μm NC membrane), blocked with blocking buffer at room temperature for 1 hour, and subjected to antibody incubation and development procedures according to the antibody manufacturer's instructions (Cell Signaling Technology).
(§2) Half-Maximal Degradation Concentration value (the drug concentration required for degrading proteins by 50%, abbreviated as DC50) reads method: comparing the grayscale values of Western blot bands from drug-treated samples with those from blank DMSO-treated controls, and identifying the drug concentration range at which the grayscale value is half that of the DMSO-treated control bands.
(§3) DC50 values can be calculated using ImageJ software to measure grayscale values of Western blot bands from drug-treated samples. The concentration-response curve is fitted to estimate the drug concentration corresponding to half the grayscale value.
(§4) Target protein remaining (%) refers to the percentage of target protein remaining in cells after treatment with protein degrader compounds.
(§5) Calculation method for target protein remaining (%): Use ImageJ software to measure grayscale values of Western blot bands from drug (protein degrader)-treated samples. The grayscale value of drug-treated bands is divided by that of internal control protein bands, and the resulting quotient is normalized to obtain the relative percentage of remaining target protein after protein degrader treatment.
(§6) Target protein degradation rate (%)=1−target protein remaining (%).

IKZF1 = biological target: T2, IKZF1 (Homo sapiens, UniProt Q13422+Q96SW2); test: Western blot degradation of IKZF1 in hPBMCs (24 h)
T2 construct: The supernatant was aspirated as the extracted total cell protein; endogenous in cells; host or cells: human peripheral blood mononuclear cells (hPBMCs)
T2 sequence (Q13422 whole entry): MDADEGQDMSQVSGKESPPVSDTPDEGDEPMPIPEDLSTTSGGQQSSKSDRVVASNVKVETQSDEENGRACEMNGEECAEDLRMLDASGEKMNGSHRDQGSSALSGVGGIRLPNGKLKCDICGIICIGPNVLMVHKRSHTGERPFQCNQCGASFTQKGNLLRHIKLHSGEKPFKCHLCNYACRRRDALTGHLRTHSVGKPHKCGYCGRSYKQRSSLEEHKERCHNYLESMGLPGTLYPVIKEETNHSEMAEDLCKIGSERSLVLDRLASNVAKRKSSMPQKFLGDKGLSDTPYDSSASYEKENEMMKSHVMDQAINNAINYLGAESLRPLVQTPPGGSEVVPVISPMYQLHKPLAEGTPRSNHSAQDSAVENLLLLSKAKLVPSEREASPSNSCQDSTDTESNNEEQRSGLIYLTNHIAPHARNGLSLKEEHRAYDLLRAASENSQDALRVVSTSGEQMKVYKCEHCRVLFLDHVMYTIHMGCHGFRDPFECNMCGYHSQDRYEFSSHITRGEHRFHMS
T2 sequence (Q96SW2 whole entry): as the sequence (Q96SW2 whole entry) above
T2 sequence (Q16531 whole entry partner): as the sequence (Q16531 whole entry partner) above
Description: as §1, §2, §3, §4, §5, §6

IKZF3 = biological target: T3, IKZF3 (Homo sapiens, UniProt Q96SW2+Q9UKT9); test: Western blot degradation of IKZF3 in hPBMCs (24 h)
T3 construct: The supernatant was aspirated as the extracted total cell protein; endogenous in cells; host or cells: human peripheral blood mononuclear cells (hPBMCs)
T3 sequence (Q9UKT9 whole entry): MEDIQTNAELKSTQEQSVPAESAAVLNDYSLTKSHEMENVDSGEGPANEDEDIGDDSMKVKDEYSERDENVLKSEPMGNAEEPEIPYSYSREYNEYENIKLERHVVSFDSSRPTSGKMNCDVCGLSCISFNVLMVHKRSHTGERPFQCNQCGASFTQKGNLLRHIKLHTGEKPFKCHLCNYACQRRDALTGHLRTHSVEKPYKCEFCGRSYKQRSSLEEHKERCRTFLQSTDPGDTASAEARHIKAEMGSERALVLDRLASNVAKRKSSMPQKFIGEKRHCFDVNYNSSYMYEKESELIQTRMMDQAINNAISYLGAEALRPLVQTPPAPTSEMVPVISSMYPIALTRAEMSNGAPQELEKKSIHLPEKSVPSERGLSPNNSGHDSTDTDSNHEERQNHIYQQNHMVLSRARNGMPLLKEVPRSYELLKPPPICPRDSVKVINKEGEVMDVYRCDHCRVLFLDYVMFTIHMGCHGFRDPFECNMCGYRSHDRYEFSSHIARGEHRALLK
T3 sequence (Q96SW2 whole entry): as the sequence (Q96SW2 whole entry) above
T3 sequence (Q16531 whole entry partner): as the sequence (Q16531 whole entry partner) above
Description: as §1, §2, §3, §4, §5, §6

WEE1 = biological target: T4, WEE1 (Homo sapiens, UniProt P30291+Q96SW2); test: Western blot degradation of WEE1 in hPBMCs (24 h)
T4 construct: The supernatant was aspirated as the extracted total cell protein; endogenous in cells; host or cells: human peripheral blood mononuclear cells (hPBMCs)
T4 sequence (P30291 whole entry): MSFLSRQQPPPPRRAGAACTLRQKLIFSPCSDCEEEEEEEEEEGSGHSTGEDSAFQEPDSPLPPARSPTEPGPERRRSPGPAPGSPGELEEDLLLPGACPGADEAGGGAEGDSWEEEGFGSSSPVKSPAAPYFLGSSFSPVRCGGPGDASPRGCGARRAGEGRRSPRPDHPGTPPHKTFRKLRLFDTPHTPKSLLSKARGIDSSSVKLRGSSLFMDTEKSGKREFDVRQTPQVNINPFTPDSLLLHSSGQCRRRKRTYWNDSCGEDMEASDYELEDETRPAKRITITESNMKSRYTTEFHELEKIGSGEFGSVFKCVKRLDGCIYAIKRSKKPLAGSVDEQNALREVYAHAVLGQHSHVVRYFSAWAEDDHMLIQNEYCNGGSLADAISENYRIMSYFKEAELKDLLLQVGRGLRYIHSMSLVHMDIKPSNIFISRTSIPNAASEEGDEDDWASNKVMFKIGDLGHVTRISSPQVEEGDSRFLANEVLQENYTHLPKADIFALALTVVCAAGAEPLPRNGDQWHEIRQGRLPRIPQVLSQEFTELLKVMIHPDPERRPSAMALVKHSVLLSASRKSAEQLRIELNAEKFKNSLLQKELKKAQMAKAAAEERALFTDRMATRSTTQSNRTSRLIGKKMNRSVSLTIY
T4 sequence (Q96SW2 whole entry): as the sequence (Q96SW2 whole entry) above
T4 sequence (Q16531 whole entry partner): as the sequence (Q16531 whole entry partner) above
Description: as §1, §2, §3, §4, §5, §6

GSPT1 = biological target: T5, GSPT1 (Homo sapiens, UniProt P15170+Q96SW2); test: Western blot degradation of GSPT1 in hPBMCs (24 h)
T5 construct: The supernatant was aspirated as the extracted total cell protein; endogenous in cells; host or cells: human peripheral blood mononuclear cells (hPBMCs)
Description: as §1, §2, §3, §4, §5, §6

IKZF2 = biological target: T6, IKZF2 (Homo sapiens, UniProt Q96SW2+Q9UKS7); test: Western blot degradation of IKZF2 in hPBMCs (24 h)
T6 construct: The supernatant was aspirated as the extracted total cell protein; endogenous in cells; host or cells: human peripheral blood mononuclear cells (hPBMCs)
T6 sequence (Q9UKS7 whole entry): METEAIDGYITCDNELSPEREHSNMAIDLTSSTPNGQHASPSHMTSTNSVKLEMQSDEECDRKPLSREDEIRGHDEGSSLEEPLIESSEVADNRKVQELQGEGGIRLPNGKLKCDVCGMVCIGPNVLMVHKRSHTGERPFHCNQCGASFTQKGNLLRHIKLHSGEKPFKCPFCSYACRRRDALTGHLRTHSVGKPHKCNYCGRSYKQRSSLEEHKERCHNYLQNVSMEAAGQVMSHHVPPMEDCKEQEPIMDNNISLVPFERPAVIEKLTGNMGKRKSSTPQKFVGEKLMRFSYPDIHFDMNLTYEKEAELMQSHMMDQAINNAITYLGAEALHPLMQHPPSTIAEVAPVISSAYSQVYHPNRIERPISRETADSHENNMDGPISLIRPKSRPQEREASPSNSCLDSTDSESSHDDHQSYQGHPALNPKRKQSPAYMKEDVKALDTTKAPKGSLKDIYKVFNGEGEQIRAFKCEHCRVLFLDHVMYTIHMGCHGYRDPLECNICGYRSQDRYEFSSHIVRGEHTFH
T6 sequence (Q96SW2 whole entry): as the sequence (Q96SW2 whole entry) above
T6 sequence (Q16531 whole entry partner): as the sequence (Q16531 whole entry partner) above
Description: as §1, §2, §3, §4, §5, §6

Compound | CK1α substrate protein remaining % (CK1α) | IKZF1 substrate protein remaining % (IKZF1) | IKZF3 substrate protein remaining % (IKZF3) | WEE1 substrate protein remaining % (WEE1) | GSPT1 substrate protein remaining % (GSPT1) | IKZF2 substrate protein remaining % (IKZF2)
O=C1CCN(N2Cc3cc(CN4CCN(c5ncccc5C(F)(F)F)CC4)ccc3C2=O)C(=O)N1 [GT-05174, 1-(1-oxo-5-((4-(3-(trifluoromethyl)pyridin-2-yl)piperazin-1-yl)methyl)isoindolin-2-yl)dihydropyrimidine-2,4(1H,3H)-dione] | B (80%< substrate protein remaining % ≤100%) | B (80%< substrate protein remaining % ≤100%) | B (80%< substrate protein remaining % ≤100%) |  |  | 
O=C1CCN(N2Cc3cc(CN4CCN(c5cccc(C(F)(F)F)n5)CC4)ccc3C2=O)C(=O)N1 [GT-05175, 1-(1-oxo-5-((4-(6-(trifluoromethyl)pyridin-2-yl)piperazin-1-yl)methyl)isoindolin-2-yl)dihydropyrimidine-2,4(1H,3H)-dione] |  | B (80%< substrate protein remaining % ≤100%) |  | A (0% ≤ substrate protein remaining % ≤80%) | A (0% ≤ substrate protein remaining % ≤80%) | B (80%< substrate protein remaining % ≤100%)
O=C1CCN(N2Cc3cc(CN4CCN(c5ccc(C(F)(F)F)cn5)CC4)ccc3C2=O)C(=O)N1 [GT-05176, 1-(1-oxo-5-((4-(5-(trifluoromethyl)pyridin-2-yl)piperazin-1-yl)methyl)isoindolin-2-yl)dihydropyrimidine-2,4(1H,3H)-dione] | B (80%< substrate protein remaining % ≤100%) | B (80%< substrate protein remaining % ≤100%) |  |  |  | B (80%< substrate protein remaining % ≤100%)
O=C1CCN(N2C(=O)c3ccc(CN4CCN(c5ccccn5)CC4)cc3C2=O)C(=O)N1 [GT-05351, 2-(2,4-dioxotetrahydropyrimidin-1(2H)-yl)-5-((4-(pyridin-2-yl)piperazin-1-yl)methyl)isoindoline-1,3-dione] | B (80%< substrate protein remaining % ≤100%) | B (80%< substrate protein remaining % ≤100%) | B (80%< substrate protein remaining % ≤100%) |  |  | A (0% ≤ substrate protein remaining % ≤80%)
O=C1CCN(N2C(=O)c3ccc(CN4CCN(c5cccc(Cl)n5)CC4)cc3C2=O)C(=O)N1 [GT-05353, 5-((4-(6-chloropyridin-2-yl)piperazin-1-yl)methyl)-2-(2,4-dioxotetrahydropyrimidin-1(2H)-yl)isoindoline-1,3-dione] | B (80%< substrate protein remaining % ≤100%) | B (80%< substrate protein remaining % ≤100%) | B (80%< substrate protein remaining % ≤100%) |  | A (0% ≤ substrate protein remaining % ≤80%) | B (80%< substrate protein remaining % ≤100%)
O=C1CCN(N2C(=O)c3ccc(CN4CCN(c5cc(Cl)ccn5)CC4)cc3C2=O)C(=O)N1 [GT-05354, 5-((4-(4-chloropyridin-2-yl)piperazin-1-yl)methyl)-2-(2,4-dioxotetrahydropyrimidin-1(2H)-yl)isoindoline-1,3-dione] | B (80%< substrate protein remaining % ≤100%) | B (80%< substrate protein remaining % ≤100%) |  |  | A (0% ≤ substrate protein remaining % ≤80%) | 
O=C1CCN(N2C(=O)c3ccc(CN4CCN(c5ncccc5F)CC4)cc3C2=O)C(=O)N1 [GT-05355, 2-(2,4-dioxotetrahydropyrimidin-1(2H)-yl)-5-((4-(3-fluoropyridin-2-yl)piperazin-1-yl)methyl)isoindoline-1,3-dione] | B (80%< substrate protein remaining % ≤100%) | B (80%< substrate protein remaining % ≤100%) | B (80%< substrate protein remaining % ≤100%) | B (80%< substrate protein remaining % ≤100%) | A (0% ≤ substrate protein remaining % ≤80%) | 
O=C1CCN(N2Cc3cc(CN4CCN(c5ncc(Cl)cc5Cl)CC4)ccc3C2=O)C(=O)N1 [GT-05356, 1-(5-((4-(3,5-dichloropyridin-2-yl)piperazin-1-yl)methyl)-1-oxoisoindolin-2-yl)dihydropyrimidine-2,4(1H,3H)-dione] | B (80%< substrate protein remaining % ≤100%) | B (80%< substrate protein remaining % ≤100%) | B (80%< substrate protein remaining % ≤100%) |  |  | 
O=C1CCN(N2Cc3cc(CN4CCN(c5nccc(F)c5F)CC4)ccc3C2=O)C(=O)N1 [GT-05357, 1-(5-((4-(3,4-difluoropyridin-2-yl)piperazin-1-yl)methyl)-1-oxoisoindolin-2-yl)dihydropyrimidine-2,4(1H,3H)-dione] | B (80%< substrate protein remaining % ≤100%) | B (80%< substrate protein remaining % ≤100%) | B (80%< substrate protein remaining % ≤100%) |  |  | B (80%< substrate protein remaining % ≤100%)
O=C1CCN(N2Cc3cc(CN4CCN(c5nccc(I)c5F)CC4)ccc3C2=O)C(=O)N1 [GT-05406, 1-(5-((4-(3-fluoro-4-iodopyridin-2-yl)piperazin-1-yl)methyl)-1-oxoisoindolin-2-yl)dihydropyrimidine-2,4(1H,3H)-dione] | B (80%< substrate protein remaining % ≤100%) | B (80%< substrate protein remaining % ≤100%) | B (80%< substrate protein remaining % ≤100%) |  | A (0% ≤ substrate protein remaining % ≤80%) | 
O=C1CCN(N2Cc3cc(CN4CCN(c5nccc(Cl)c5Br)CC4)ccc3C2=O)C(=O)N1 [GT-05432, 1-(5-((4-(3-bromo-4-chloropyridin-2-yl)piperazin-1-yl)methyl)-1-oxoisoindolin-2-yl)dihydropyrimidine-2,4(1H,3H)-dione] | B (80%< substrate protein remaining % ≤100%) | B (80%< substrate protein remaining % ≤100%) | B (80%< substrate protein remaining % ≤100%) | A (0% ≤ substrate protein remaining % ≤80%) |  | B (80%< substrate protein remaining % ≤100%)
O=C1CCN(N2Cc3cc(CN4CCN(c5ncc(C(F)(F)F)cc5Cl)CC4)ccc3C2=O)C(=O)N1 [GT-05433, 1-(5-((4-(3-chloro-5-(trifluoromethyl)pyridin-2-yl)piperazin-1-yl)methyl)-1-oxoisoindolin-2-yl)dihydropyrimidine-2,4(1H,3H)-dione] | B (80%< substrate protein remaining % ≤100%) | B (80%< substrate protein remaining % ≤100%) | B (80%< substrate protein remaining % ≤100%) | A (0% ≤ substrate protein remaining % ≤80%) | A (0% ≤ substrate protein remaining % ≤80%) | 
O=C1CCN(N2Cc3cc(CN4CCN(c5cccnc5)CC4)ccc3C2=O)C(=O)N1 [GT-05434, 1-(1-oxo-5-((4-(pyridin-3-yl)piperazin-1-yl)methyl)isoindolin-2-yl)dihydropyrimidine-2,4(1H,3H)-dione] |  | B (80%< substrate protein remaining % ≤100%) | B (80%< substrate protein remaining % ≤100%) | A (0% ≤ substrate protein remaining % ≤80%) | A (0% ≤ substrate protein remaining % ≤80%) | 
O=C1CCN(N2Cc3cc(CN4CCN(c5ccncc5Br)CC4)ccc3C2=O)C(=O)N1 [GT-05439, 1-(5-((4-(3-bromopyridin-4-yl)piperazin-1-yl)methyl)-1-oxoisoindolin-2-yl)dihydropyrimidine-2,4(1H,3H)-dione] |  | B (80%< substrate protein remaining % ≤100%) |  | A (0% ≤ substrate protein remaining % ≤80%) |  | B (80%< substrate protein remaining % ≤100%)
